{"source": "paper PMC10609499", "about": "“In Vitro Assessment of the Antidiabetic and Anti-Inflammatory Potential of Artemisia absinthium, Artemisia vulgaris and Trigonella foenum-graecum Extracts Processed Using Membrane Technologies” (Molecules, 2023)", "key": {"[1]": {"target": "T1, α-amylase from hog pancreas (EC 3.2.1.1) (Sus scrofa, UniProt P00690)", "T1 construct": "from tissue; host or cells: hog pancreas", "T1 sequence (P00690 16-511)": "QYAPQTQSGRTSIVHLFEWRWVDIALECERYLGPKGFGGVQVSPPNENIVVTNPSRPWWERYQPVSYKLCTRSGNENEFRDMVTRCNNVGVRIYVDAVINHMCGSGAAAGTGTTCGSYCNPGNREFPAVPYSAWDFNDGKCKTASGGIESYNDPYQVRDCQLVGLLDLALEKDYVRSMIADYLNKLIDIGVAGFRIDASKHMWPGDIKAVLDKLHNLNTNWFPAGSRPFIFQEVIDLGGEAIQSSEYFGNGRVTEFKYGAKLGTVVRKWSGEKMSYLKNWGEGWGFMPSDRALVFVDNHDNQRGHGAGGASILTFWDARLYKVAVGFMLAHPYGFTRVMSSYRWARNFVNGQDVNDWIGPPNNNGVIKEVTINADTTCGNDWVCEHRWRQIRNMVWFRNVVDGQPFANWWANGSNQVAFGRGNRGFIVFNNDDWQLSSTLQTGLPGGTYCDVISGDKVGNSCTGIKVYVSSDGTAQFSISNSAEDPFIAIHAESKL", "experiment": "α-Amylase inhibition assay", "type": "biochemical", "details": "hog pancreas enzyme, starch substrate, 37 °C, DNS, pH 6.9; mean ± SD of triplicate", "experimental": "The α-amylase inhibition assay was performed according to the Ranilla method, which was slightly modified. Thus, 100 μL of extract was mixed with 250 μL of α-amylase from hog pancreas (EC 3.2.1.1) (0.5 mg/mL in 0.02 M sodium phosphate buffer, pH 6.9 with 0.006 M NaCl) and was incubated at 37 °C for 20 min; then, 250 μL of starch solution (1% in sodium phosphate buffer) was added, and the mixture was incubated at 37 °C for 30 min; then, 500 μL of dinitrosalicylic acid (DNS) was added and the mixture was boiled for 5 min. Finally, 5 mL of distilled water was added to the reaction mixture. […] The calculation of the results was carried out using the following formula:(4) % Amylase inhibition=ΔAcontrol−ΔAsample/ΔAcontrol × 100\n(§1) The IC50 values were calculated via the linear regression analysis. Significant statistical differences were considered at p < 0.05."}, "[2]": {"target": "T2, lipoxygenase (EC 1.13.11.12) (Glycine max, UniProt P08170)", "T2 sequence (P08170 1-839)": "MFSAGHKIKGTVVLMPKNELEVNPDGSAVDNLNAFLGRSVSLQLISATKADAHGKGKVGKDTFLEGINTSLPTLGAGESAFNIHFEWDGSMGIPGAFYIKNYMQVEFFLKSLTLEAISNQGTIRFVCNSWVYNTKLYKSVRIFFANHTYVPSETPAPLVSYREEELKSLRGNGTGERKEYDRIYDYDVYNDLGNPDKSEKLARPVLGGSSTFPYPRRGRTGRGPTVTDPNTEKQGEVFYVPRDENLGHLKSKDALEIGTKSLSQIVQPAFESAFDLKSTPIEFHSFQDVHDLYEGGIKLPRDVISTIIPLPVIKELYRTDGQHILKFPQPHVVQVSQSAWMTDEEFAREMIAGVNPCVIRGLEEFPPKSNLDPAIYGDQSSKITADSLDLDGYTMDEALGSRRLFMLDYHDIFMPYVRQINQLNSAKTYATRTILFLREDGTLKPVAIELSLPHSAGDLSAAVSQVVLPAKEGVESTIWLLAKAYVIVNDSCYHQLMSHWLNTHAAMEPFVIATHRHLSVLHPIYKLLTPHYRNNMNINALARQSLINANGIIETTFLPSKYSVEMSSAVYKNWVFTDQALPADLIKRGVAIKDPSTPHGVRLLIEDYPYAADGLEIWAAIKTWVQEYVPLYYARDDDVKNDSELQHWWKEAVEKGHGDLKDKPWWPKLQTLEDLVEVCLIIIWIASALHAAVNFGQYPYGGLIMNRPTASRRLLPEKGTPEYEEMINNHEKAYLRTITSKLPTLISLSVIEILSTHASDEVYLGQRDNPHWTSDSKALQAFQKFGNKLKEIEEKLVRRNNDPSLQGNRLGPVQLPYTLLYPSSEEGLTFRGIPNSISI", "experiment": "Lipoxygenase inhibition assay", "type": "biochemical", "details": "234 nm, mean ± SD of triplicate", "experimental": "as §1"}, "[3]": {"experiment": "DPPH radical scavenging activity", "details": "absorbance at 517 nm after 10 min; mean ± SD of triplicate", "description": "The scavenging activity on the DPPH radical of samples was determined by measuring the decrease in the DPPH maximum absorbency at 517 nm after 10 min [64] and was calculated as follows:radical scavenging activity (%) = [(AB − AA)/AB] × 100(2) where: AB = control absorbance and AA = sample absorbance."}, "[4]": {"experiment": "Reducing power activity (iron (III) to iron (II) reduction)", "details": "absorbance at 700 nm; mean ± SD of triplicate", "experimental": "• ○ Reducing Power Activity (Iron (III) to iron (II) reduction) Reducing power was determined according to a previously described procedure. The absorbance was measured spectrophotometrically at 700 nm and calculation was carried out using the following formula:Reducing power (%) = [(AA − AB)/AA] × 100(3) where AA = sample absorbance; AB = control absorbance."}, "[5]": {"target": "α-glucosidase from Saccharomyces cerevisiae (EC 3.2.1.20) (Saccharomyces cerevisiae, UniProt P53341)", "sequence (P53341 whole entry)": "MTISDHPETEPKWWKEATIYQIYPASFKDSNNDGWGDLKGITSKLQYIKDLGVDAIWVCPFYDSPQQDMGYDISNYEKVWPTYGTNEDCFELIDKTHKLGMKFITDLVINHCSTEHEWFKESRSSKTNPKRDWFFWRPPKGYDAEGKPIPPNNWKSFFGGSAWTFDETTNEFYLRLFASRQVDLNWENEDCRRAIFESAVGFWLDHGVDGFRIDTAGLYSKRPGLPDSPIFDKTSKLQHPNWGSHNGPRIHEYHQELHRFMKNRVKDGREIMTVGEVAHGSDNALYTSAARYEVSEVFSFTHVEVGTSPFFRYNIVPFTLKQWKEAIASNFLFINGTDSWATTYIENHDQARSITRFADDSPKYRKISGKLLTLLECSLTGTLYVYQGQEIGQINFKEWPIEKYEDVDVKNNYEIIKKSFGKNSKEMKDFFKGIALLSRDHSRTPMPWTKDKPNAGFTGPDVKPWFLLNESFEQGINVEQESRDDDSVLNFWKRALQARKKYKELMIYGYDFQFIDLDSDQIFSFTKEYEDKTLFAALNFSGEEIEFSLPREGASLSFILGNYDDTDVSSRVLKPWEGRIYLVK", "experiment": "α-Glucosidase inhibition assay", "type": "biochemical", "experimental": "as §1"}, "[6]": {"details": "linoleic acid substrate, read-out: Inhibition of LOX IC50 (converted)"}}, "note": "Like-named read-outs stand apart in the source and are kept apart here."}
{"smiles": "O=C(/C=C/c1ccc(O)c(O)c1)O[C@@H]1C[C@](O)(C(=O)O)C[C@@H](O)[C@H]1O", "note": "[Chlorogenic acid]", "values": [{"measurement": "IC50", "setting": "[1]", "result": 5.36, "unit": "µM"}, {"measurement": "IC50", "setting": "[2]; [6]", "result": 73.7, "unit": "µM"}]}
{"smiles": "O=C1O[C@H]([C@@H](O)CO)C(O)=C1O", "note": "[Ascorbic acid]", "values": [{"measurement": "% DPPH Inhibition", "setting": "[3]", "result": "96.9 ± 3.6", "unit": "%"}, {"measurement": "Reducing Power %", "setting": "[4]", "result": "34.5 ± 1.3", "unit": "%"}]}
{"smiles": "O=C(/C=C/c1ccc(O)c(O)c1)O[C@H](Cc1ccc(O)c(O)c1)C(=O)O", "note": "[Rosmarinic acid]", "values": [{"measurement": "IC50", "setting": "[1]", "result": 2.5, "unit": "µM"}, {"measurement": "IC50", "setting": "[5]", "result": 0.5, "unit": "µM"}, {"measurement": "IC50", "setting": "[2]; Inhibition of LOX IC50, linoleic acid substrate", "result": 84.1, "unit": "µM"}]}
{"smiles": "C[C@@H]1O[C@@H](OC[C@H]2O[C@@H](Oc3c(-c4ccc(O)c(O)c4)oc4cc(O)cc(O)c4c3=O)[C@H](O)[C@@H](O)[C@@H]2O)[C@H](O)[C@H](O)[C@H]1O", "note": "[Rutin]", "values": [{"measurement": "IC50", "setting": "[2]; [6]", "result": 36.6, "unit": "µM"}]}
